Test system: human NK cells from PBMC
Test: Fold expansion and overall yield of transduced NK cells in culture
Type: cell-based
Settings: BX795 (1.5 μM) during transduction combined with pre-stimulation with SMI-LCL feeder cells (FIG. 28A, 28B)

## O=C(NCCCNc1nc(Nc2cccc(NC(=O)N3CCCC3)c2)ncc1I)c1cccs1 [BX795]
  subsequent proliferation of lentiviral transduced ex-vivo expanded human NK cells: increased subsequent proliferation
